Data taken from publication PMC3530479, “Bestrophin-Encoded Ca^2+-Activated Cl^− Channels Underlie a Current with Properties Similar to the Native Current in the Moth Spodoptera littoralis Olfactory Receptor Neurons” (PLoS ONE, 2012).

Target: T1, SlitBest1b (Spodoptera littoralis, UniProt I6YK90)
T1 construct: full open reading frame without stop codon in pCINeo/IRES-GFP, expressed transiently in CHO-K1 cells
T1 sequence (I6YK90 1-707): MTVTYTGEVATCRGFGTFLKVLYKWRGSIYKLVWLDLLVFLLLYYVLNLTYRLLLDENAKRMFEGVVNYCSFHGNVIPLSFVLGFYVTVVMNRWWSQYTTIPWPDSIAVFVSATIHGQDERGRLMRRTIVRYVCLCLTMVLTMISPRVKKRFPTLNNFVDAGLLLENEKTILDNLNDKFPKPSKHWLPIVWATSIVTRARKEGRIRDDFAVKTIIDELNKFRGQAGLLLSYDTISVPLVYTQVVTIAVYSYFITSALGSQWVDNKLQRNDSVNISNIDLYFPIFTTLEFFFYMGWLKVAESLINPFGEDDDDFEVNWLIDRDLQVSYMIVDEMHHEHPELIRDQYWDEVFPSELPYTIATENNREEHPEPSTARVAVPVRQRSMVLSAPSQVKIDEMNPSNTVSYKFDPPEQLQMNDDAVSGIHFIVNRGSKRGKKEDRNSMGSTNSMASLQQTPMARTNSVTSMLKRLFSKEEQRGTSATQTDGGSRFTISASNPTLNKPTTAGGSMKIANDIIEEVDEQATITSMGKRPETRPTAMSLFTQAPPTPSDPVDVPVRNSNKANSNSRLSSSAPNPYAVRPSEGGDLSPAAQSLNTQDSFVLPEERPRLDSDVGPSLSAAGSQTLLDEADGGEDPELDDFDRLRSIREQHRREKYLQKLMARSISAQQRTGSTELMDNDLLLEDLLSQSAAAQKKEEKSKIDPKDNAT
Test: whole-cell patch clamp, steady-state Ca2+-activated Cl- current in transfected CHO-K1 cells
Assay type: cell-based
From the text: whole-cell patch clamp, steady-state Ca2+-activated Cl- current in transfected CHO-K1 cells on SlitBest1b

SMILES | inhibition at 300 µM [%] | inhibition at 100 µM [%]
O=C(O)c1cccnc1Nc1cccc(C(F)(F)F)c1 [niflumic acid] | 65.1 ± 8.9 | 
O=C(O)c1cc([N+](=O)[O-])ccc1NCCCc1ccccc1 [NPPB, 5-nitro-2-(3-phenylpropylamino) benzoic acid] |  | 101 ± 7.6
O=C(O)c1ccccc1Nc1cccc(C(F)(F)F)c1 [flufenamic acid] |  | 78.7 ± 8.2
